In patent publication US12728186B2, “Methods and kits for preparing pathogen-inactivated whole blood” (priority 2018, dated 2026):
Values joined by “and” are separate entries in the source; they are usually repeats but may differ in a detail not shown here. Identical values can stand only once.

Assay: Residual unreacted amustaline by LCMS, Example 4 (1-, 2- or 3-container kits)
Assay type: physicochemical
Conditions: for Residual amustaline levels in pathogen-inactivated whole blood, 20 hr / Residual amustaline levels in pathogen-inactivated whole blood, 22 hr / Residual amustaline levels in pathogen-inactivated whole blood, 24 hr / Residual amustaline levels in pathogen-inactivated whole blood, 26 hr: 22° C.
Procedure: Another study was performed to evaluate the preparation of pathogen-inactivated whole blood using amustaline and GSH, in 1-container, 2-container or 3-container kits of the present disclosure. Six ABO-matched whole blood units in anticoagulant were pooled and split into seven units of ~450 mL. The seven whole blood units were subjected to pathogen inactivation under one of three conditions—with no transfer step between containers, one transfer step between two containers, or two transfer steps between three containers (Table 5). Amustaline and GSH were added to the whole blood units by sterile docking of a filter set as previously described to the tubing of an input port of the first container that contained the whole blood. Unit 1 was treated with amustaline and GSH at 0.2 mM and 2.0 mM final concentrations, respectively, in the first container and incubated at 22° C., with samples taken at 20, 22, 24 and 26 hours, with no further container transfers. For units 2-4, amustaline and GSH were added to the whole blood (0.2 mM and 2.0 mM final concentrations, respectively) in the first container and incubated at 22° C. for 20 hours. A sample was taken at 20 hours, along with transfer to a second bag and further incubation at 22° C., with additional sampling at 2 hour intervals (22, 24 and 26 hr). For units 5-7, amustaline and GSH were added to the whole blood (0.2 mM and 2.0 mM final concentrations, respectively) in the first container and the mixture transferred to a second container, followed by incubation at 22° C. for 20 hours. A sample was taken at 20 hours, along with transfer to a third bag and further incubation at 22° C., with additional sampling at 2 hour intervals (22, 24 and 26 hr).
Samples were analyzed by LCMS to determine the level of residual, unreacted amustaline as previously described.

[1] = Unit 1, no transfer (1 bag kit)
[2] = Units 2-4, 1x transfer (2 bag kit), to second bag at 20 hr
[3] = Units 5-7, 2x transfer (3 bag kit), second container after addition, third bag at 20 hr

O=C(CCNc1c2ccccc2nc2ccccc12)OCCN(CCCl)CCCl [amustaline]
level of amustaline after PI processing, 2-container and 3-container kits (2-container and 3-container kits, after transfer at 20 hr): below the limit of quantitation
Residual amustaline levels in pathogen-inactivated whole blood, 20 hr (20 hr (at transfer to third bag), Units 5-7, 2x transfer (3 bag kit), second container after addition, third bag at 20 hr): 1.47 nM and 1.46 nM and 1.53 nM
Residual amustaline levels in pathogen-inactivated whole blood, 20 hr (20 hr (at transfer), Units 2-4, 1x transfer (2 bag kit), to second bag at 20 hr): 1.53 nM and 1.65 nM and 1.66 nM
Residual amustaline levels in pathogen-inactivated whole blood, 20 hr (20 hr, Unit 1, no transfer (1 bag kit)): 1.47 nM
Residual amustaline levels in pathogen-inactivated whole blood, 22 hr [1]: 1.54 nM
Residual amustaline levels in pathogen-inactivated whole blood, 22 hr [2]: BLOQ (BLOQ = Below Limit of Quantitation (e.g., < 0.75 nM))
Residual amustaline levels in pathogen-inactivated whole blood, 22 hr [3]: BLOQ (BLOQ = Below Limit of Quantitation (e.g., < 0.75 nM))
Residual amustaline levels in pathogen-inactivated whole blood, 24 hr [1]: 1.39 nM
Residual amustaline levels in pathogen-inactivated whole blood, 24 hr [2]: BLOQ (BLOQ = Below Limit of Quantitation (e.g., < 0.75 nM))
Residual amustaline levels in pathogen-inactivated whole blood, 24 hr [3]: BLOQ (BLOQ = Below Limit of Quantitation (e.g., < 0.75 nM))
Residual amustaline levels in pathogen-inactivated whole blood, 26 hr [1]: 1.32 nM
Residual amustaline levels in pathogen-inactivated whole blood, 26 hr [2]: BLOQ (BLOQ = Below Limit of Quantitation (e.g., < 0.75 nM))
Residual amustaline levels in pathogen-inactivated whole blood, 26 hr [3]: BLOQ (BLOQ = Below Limit of Quantitation (e.g., < 0.75 nM))
